Test results from publication PMC8319832, “Fine-Tuning of Alkaline Residues on the Hydrophilic Face Provides a Non-toxic Cationic α-Helical Antimicrobial Peptide Against Antibiotic-Resistant ESKAPE Pathogens” (Frontiers in Microbiology, 2021).
In brackets after ≈: the same amount, converted by molar mass. Where a SMILES comes first, the peptide text is derived from it.

Tests used:
E. faecalis 901 = assay: MIC, broth dilution; type: cell-based; conditions: CLSI broth dilution, MHB, 37°C, 20 h, OD630, at least three repeats; clinical isolate
Excerpt: (§1) All experiments were repeated at least three times.

S. epidermidis 6943 = assay: MIC, broth dilution; type: cell-based; conditions: CLSI broth dilution, MHB, 37°C, 20 h, OD630, at least three repeats; clinical isolate, MRSE
Excerpt: as §1

S. epidermidis 888 = assay: MIC, broth dilution; type: cell-based; conditions: CLSI broth dilution, MHB, 37°C, 20 h, OD630, at least three repeats; clinical isolate
Excerpt: as §1

S. epidermidis 9092 = assay: MIC, broth dilution; type: cell-based; conditions: CLSI broth dilution, MHB, 37°C, 20 h, OD630, at least three repeats; clinical isolate, MRSE
Excerpt: as §1

E. faecalis ATCC 29212 = assay: MIC, broth dilution; type: cell-based
Protocol: as §1
(§2) To study the influence of physiological ions on the antimicrobial activities of the peptides, The MICs of the peptides were also determined against the standard bacterial strains cultured in MHB containing various salts at their physiological concentrations (150 mM NaCl, 4.5 mM KCl, 1 mM MgCl2, 2 mM CaCl2, 6 μM NH4HCO3, and 4 μM FeCl3) ([Ma et al., 2016]).

A. baumannii ATCC 19606 = assay: MIC, broth dilution; type: cell-based, Acinetobacter baumannii
Protocol: as §1, §2

[1] = tested on: human embryonic kidney cell 293T (HEK293T); assay: Cytotoxicity, CCK-8; type: cell-based; conditions: up to 40 μg ml^–1, 24 h, CCK-8, OD 450 nm, three independent experiments
Protocol: (§3) The cytotoxicity of the peptide was determined against mouse fibroblast cells L929 and human embryonic kidney cell 293T (HEK293T). Briefly, the cells were seeded at a density of 8,000 cells per well in a 96-well plate and cultured for 24 h in Dulbecco’s Modified Eagle Medium (DMEM, Gibco) supplemented with 10% fetal bovine serum (FBS, Gibco), 2 mM L-glutamine, 100 U ml^–1 penicillin, […] streptomycin (1% P/S, Invitrogen^TM), and at 37°C in a 5% of CO2 atmosphere. Then, different concentrations of the peptide (0, 10, 20, 30, and 40 μg ml^–1) were added into each well and co-incubated with the cells for 24 h. After 2 h incubation with 10 μM 2-(2-methoxy-4-nitrophenyl)-3-(4-nitrophenyl)-5-(2,4-disulfophenyl)-2H-tetrazolium (CCK-8, Yeasen, China), the cytotoxicity of the peptide was determined by measuring the optical density at 450 nm ([Wu et al., 2014]; [Li et al., 2020]).

[2] = tested on: mouse fibroblast cells L929; assay: Cytotoxicity, CCK-8; type: cell-based; conditions: at 40 μg ml^–1, 24 h, CCK-8, OD 450 nm, three independent experiments
Protocol: as §3

healthy ICR mice = assay: In vivo systemic toxicity; set-up: species or system mouse
Protocol: Healthy ICR mice (male, 6–8 weeks old, ∼30 g) were used to determine the in vivo systemic toxicity of the peptide ([Chen et al., 2013]). The mice were randomly divided into six groups (n = 10). Five cohorts were intraperitoneally injected with a single dose of 10, 20, 40, 80, and 160 mg kg^–1 body weight of the peptide dissolved in PBS. The mice injected with PBS were used as control. The survival of mice was inspected for 7 days. All surviving mice were euthanized at the end of the experiments.
For histopathological examination, each group of ICR mice (n = 6) was injected intraperitoneally with PBS or with a single dose of 40 mg kg^–1 body weight of the peptide. At 1, 2, and 7-day post-injection, the mice were euthanized, and the liver, kidney and spleen were collected and fixed with 4% formaldehyde for haematoxylin and eosin staining.

[3] = CLSI broth dilution, MHB, 37°C, 20 h, OD630, at least three repeats, standard strain
[4] = salt sensitivity test, MHB, control without addition of salt ions

SMILES: CC[C@H](C)[C@H](NC(=O)[C@H](CCCCN)NC(=O)[C@H](CCCCN)NC(=O)[C@@H](NC(=O)[C@@H](N)Cc1ccccc1)[C@@H](C)CC)C(=O)N[C@@H](C)C(=O)N[C@@H](CCCCN)C(=O)N[C@@H](CC(C)C)C(=O)N[C@@H](CC(C)C)C(=O)N[C@@H](CCCCN)C(=O)N[C@@H](CCCCN)C(=O)N[C@H](C(=O)N[C@@H](Cc1ccccc1)C(N)=O)[C@@H](C)CC [BmKn2-7K] (H-FIKKIAKLLKKIF-NH2)
- MIC (E. faecalis 901): 10 µg/mL (≈ 6.29 µM)
- MIC (S. epidermidis 6943): 2.5 µg/mL (≈ 1.57 µM)
- MIC (S. epidermidis 888): 2.5 µg/mL (≈ 1.57 µM)
- MIC (S. epidermidis 9092): 2.5 µg/mL (≈ 1.57 µM)
- MIC (E. faecalis ATCC 29212; [3]): 5 µg/mL (≈ 3.15 µM)
- MIC (E. faecalis ATCC 29212; MHB with 4 μM FeCl3): 20 µg/mL (≈ 12.6 µM)
- MIC (E. faecalis ATCC 29212; MHB with 6 μM NH4HCO3): 20 µg/mL (≈ 12.6 µM)
- MIC (E. faecalis ATCC 29212; MHB with 1 mM MgCl2): 20 µg/mL (≈ 12.6 µM)
- MIC (E. faecalis ATCC 29212; MHB with 2 mM CaCl2): 10 µg/mL (≈ 6.29 µM)
- MIC (E. faecalis ATCC 29212; MHB with 4.5 mM KCl): 20 µg/mL (≈ 12.6 µM)
- MIC (E. faecalis ATCC 29212; MHB with 150 mM NaCl): 10 µg/mL (≈ 6.29 µM)
- MIC (E. faecalis ATCC 29212; [4]): 5 µg/mL
- MIC (A. baumannii ATCC 19606; [3]): 2.5 µg/mL (≈ 1.57 µM)
- MIC (A. baumannii ATCC 19606; MHB with 4 μM FeCl3): 5 µg/mL (≈ 3.15 µM)
- MIC (A. baumannii ATCC 19606; MHB with 6 μM NH4HCO3): 5 µg/mL (≈ 3.15 µM)
- MIC (A. baumannii ATCC 19606; MHB with 1 mM MgCl2): 2.5 µg/mL (≈ 1.57 µM)
- MIC (A. baumannii ATCC 19606; MHB with 2 mM CaCl2): 2.5 µg/mL (≈ 1.57 µM)
- MIC (A. baumannii ATCC 19606; MHB with 4.5 mM KCl): 5 µg/mL (≈ 3.15 µM)
- MIC (A. baumannii ATCC 19606; MHB with 150 mM NaCl): 2.5 µg/mL (≈ 1.57 µM)
- MIC (A. baumannii ATCC 19606; [4]): 2.5 µg/mL
- cytotoxicity (cell viability) [1]: non-toxic
- cytotoxicity (cell viability) [2]: minor cytotoxicity
- histopathological examination of liver, spleen and kidney (healthy ICR mice; single intraperitoneal dose 40 mg kg^–1 body weight, 1, 2 and 7 days post-treatment, n = 6, haematoxylin-eosin): no necrosis or drug-induced injury was observed
- mice surviving for 7 days (healthy ICR mice; single intraperitoneal dose 80 mg kg^–1 body weight, n = 10): 60%
- survival of mice (healthy ICR mice; single intraperitoneal dose 160 mg kg^–1 body weight, n = 10): died within 24 h
- survival of mice for 7 days (healthy ICR mice; single intraperitoneal dose up to 40 mg kg^–1 body weight, n = 10 per cohort): all mice
- median lethal dose (LD50) (healthy ICR mice; single intraperitoneal injection, ICR mice, 7 days): exceeds 80 mg kg^–1 body weight
